According to ChEMBL document CHEMBL3885881, “DrugMatrix”:

Species: Rattus norvegicus
Experiment: DrugMatrix - Regimen: Daily Repeat
Format: toxicity, organism-based, Sprague-Dawley
Parameters: regimen Daily Repeat, gender Male, age 6-8 weeks
Conditions: in vivo, po, route oral GAVAGE, vehicle .5 % CMC; for ABSOLUTE BASOPHIL / ABSOLUTE EOSINOPHIL / ABSOLUTE LYMPHOCYTE / ABSOLUTE MONOCYTE / ABSOLUTE SEGMENTED NEUTROPHIL / BASOPHIL / EOSINOPHIL / ERYTHROCYTE COUNT / HEMATOCRIT / HEMOGLOBIN / LEUKOCYTE COUNT / LYMPHOCYTE / MEAN CORPUSCULAR HEMOGLOBIN / MEAN CORPUSCULAR HEMOGLOBIN CONCENTRATION / MEAN CORPUSCULAR VOLUME / MONOCYTE / NEUTROPHIL / NUCLEATED RED BLOOD CELLS / PLATELET COUNT: tissue Blood; for ALANINE AMINOTRANSFERASE / ALBUMIN / ALKALINE PHOSPHATASE / ASPARTATE AMINOTRANSFERASE / BLOOD UREA NITROGEN / CARBON DIOXIDE / CHLORIDE / CHOLESTEROL / CREATINE PHOSPHOKINASE / CREATININE / GLUCOSE / LACTATE DEHYDROGENASE / LIPASE / PHOSPHORUS / POTASSIUM / SODIUM / TOTAL BILIRUBIN / TOTAL PROTEIN / URIC ACID: tissue Plasma
[1] = 22 mg/kg, 72 h, dose level High, time 3 day
[2] = 22 mg/kg, 120 h, dose level High, time 5 day
[3] = […], 72 h, dose 2.2 mg/Kg, dose level Low, time 3 day
[4] = […], 120 h, dose 2.2 mg/Kg, dose level Low, time 5 day

Cc1cc(C(C#N)c2ccc(Cl)cc2)c(Cl)cc1NC(=O)c1cc(I)cc(I)c1O (configuration not stated) [CLOSANTEL]
ABSOLUTE BASOPHIL [1]: 0 CELLS/uL
ABSOLUTE EOSINOPHIL [1]: 101.33 CELLS/uL
ABSOLUTE LYMPHOCYTE [1]: 16742.67 CELLS/uL
ABSOLUTE MONOCYTE [1]: 54 CELLS/uL
ABSOLUTE SEGMENTED NEUTROPHIL [1]: 802 CELLS/uL
BASOPHIL [1]: 0%
EOSINOPHIL [1]: 0.67%
ERYTHROCYTE COUNT [1]: 4.94 x10E6/uL
HEMATOCRIT [1]: 31.43%
HEMOGLOBIN [1]: 12.7 G/DL
LEUKOCYTE COUNT [1]: 17.7 x10E3/uL
LYMPHOCYTE [1]: 94.67%
MEAN CORPUSCULAR HEMOGLOBIN [1]: 25.77 pg
MEAN CORPUSCULAR HEMOGLOBIN CONCENTRATION [1]: 40.4 G/DL
MEAN CORPUSCULAR VOLUME [1]: 63.77 fL
MONOCYTE [1]: 0.33%
NEUTROPHIL [1]: 4.33%
NUCLEATED RED BLOOD CELLS [1]: 0 /100WBC
PLATELET COUNT [1]: 1110.67 x10E3/uL
ALANINE AMINOTRANSFERASE [1]: 49.67 u/L
ALBUMIN [1]: 4.27 G/DL
ALKALINE PHOSPHATASE [1]: 612.33 u/L
ASPARTATE AMINOTRANSFERASE [1]: 122.67 u/L
BLOOD UREA NITROGEN [1]: 16.33 mg/dL
CARBON DIOXIDE [1]: 27.67 mmol/L
CHLORIDE [1]: 103.67 MEQ/L
CHOLESTEROL [1]: 73 mg/dL
CREATINE PHOSPHOKINASE [1]: 369 u/L
CREATININE [1]: 0.19 mg/dL
GLUCOSE [1]: 171.33 mg/dL
LACTATE DEHYDROGENASE [1]: 163.67 u/L
LIPASE [1]: 9 u/L
PHOSPHORUS [1]: 12.43 mg/dL
POTASSIUM [1]: 6.8 MEQ/L
SODIUM [1]: 145.83 MEQ/L
TOTAL BILIRUBIN [1]: 0.2 mg/dL
TOTAL PROTEIN [1]: 5.73 G/DL
URIC ACID [1]: 2.13 mg/dL
ABSOLUTE BASOPHIL [2]: 0 CELLS/uL
ABSOLUTE EOSINOPHIL [2]: 0 CELLS/uL
ABSOLUTE LYMPHOCYTE [2]: 18393.33 CELLS/uL
ABSOLUTE MONOCYTE [2]: 203.33 CELLS/uL
ABSOLUTE SEGMENTED NEUTROPHIL [2]: 2403.33 CELLS/uL
BASOPHIL [2]: 0%
EOSINOPHIL [2]: 0%
ERYTHROCYTE COUNT [2]: 5.7 x10E6/uL
HEMATOCRIT [2]: 36.13%
HEMOGLOBIN [2]: 14.47 G/DL
LEUKOCYTE COUNT [2]: 21 x10E3/uL
LYMPHOCYTE [2]: 87.33%
MEAN CORPUSCULAR HEMOGLOBIN [2]: 25.4 pg
MEAN CORPUSCULAR HEMOGLOBIN CONCENTRATION [2]: 40.03 G/DL
MEAN CORPUSCULAR VOLUME [2]: 63.4 fL
MONOCYTE [2]: 1%
NEUTROPHIL [2]: 11.67%
NUCLEATED RED BLOOD CELLS [2]: 0.33 /100WBC
PLATELET COUNT [2]: 1280.33 x10E3/uL
ALANINE AMINOTRANSFERASE [2]: 76 u/L
ALBUMIN [2]: 4.63 G/DL
ALKALINE PHOSPHATASE [2]: 586.33 u/L
ASPARTATE AMINOTRANSFERASE [2]: 169.33 u/L
BLOOD UREA NITROGEN [2]: 25 mg/dL
CARBON DIOXIDE [2]: 32 mmol/L
CHLORIDE [2]: 101.67 MEQ/L
CHOLESTEROL [2]: 84 mg/dL
CREATINE PHOSPHOKINASE [2]: 365.33 u/L
CREATININE [2]: 0.32 mg/dL
GLUCOSE [2]: 141.67 mg/dL
LACTATE DEHYDROGENASE [2]: 335.67 u/L
LIPASE [2]: 11.67 u/L
PHOSPHORUS [2]: 11.47 mg/dL
POTASSIUM [2]: 7.16 MEQ/L
SODIUM [2]: 143.5 MEQ/L
TOTAL BILIRUBIN [2]: 0.2 mg/dL
TOTAL PROTEIN [2]: 6 G/DL
URIC ACID [2]: 1.9 mg/dL
ABSOLUTE BASOPHIL [3]: 0 CELLS/uL
ABSOLUTE EOSINOPHIL [3]: 27.33 CELLS/uL
ABSOLUTE LYMPHOCYTE [3]: 7010.67 CELLS/uL
ABSOLUTE MONOCYTE [3]: 50 CELLS/uL
ABSOLUTE SEGMENTED NEUTROPHIL [3]: 645.33 CELLS/uL
BASOPHIL [3]: 0%
EOSINOPHIL [3]: 0.33%
ERYTHROCYTE COUNT [3]: 5.2 x10E6/uL
HEMATOCRIT [3]: 33.97%
HEMOGLOBIN [3]: 13.53 G/DL
LEUKOCYTE COUNT [3]: 7.73 x10E3/uL
LYMPHOCYTE [3]: 90.33%
MEAN CORPUSCULAR HEMOGLOBIN [3]: 26.1 pg
MEAN CORPUSCULAR HEMOGLOBIN CONCENTRATION [3]: 39.83 G/DL
MEAN CORPUSCULAR VOLUME [3]: 65.4 fL
MONOCYTE [3]: 0.67%
NEUTROPHIL [3]: 8.67%
NUCLEATED RED BLOOD CELLS [3]: 0 /100WBC
PLATELET COUNT [3]: 1123.67 x10E3/uL
ALANINE AMINOTRANSFERASE [3]: 51 u/L
ALBUMIN [3]: 4.37 G/DL
ALKALINE PHOSPHATASE [3]: 453.33 u/L
ASPARTATE AMINOTRANSFERASE [3]: 101.67 u/L
BLOOD UREA NITROGEN [3]: 17.33 mg/dL
CARBON DIOXIDE [3]: 35.33 mmol/L
CHLORIDE [3]: 98.67 MEQ/L
CHOLESTEROL [3]: 78.67 mg/dL
CREATINE PHOSPHOKINASE [3]: 529.33 u/L
CREATININE [3]: 0.26 mg/dL
GLUCOSE [3]: 127 mg/dL
LACTATE DEHYDROGENASE [3]: 156.67 u/L
LIPASE [3]: 9.67 u/L
PHOSPHORUS [3]: 11.27 mg/dL
POTASSIUM [3]: 6.78 MEQ/L
SODIUM [3]: 144.6 MEQ/L
TOTAL BILIRUBIN [3]: 0.17 mg/dL
TOTAL PROTEIN [3]: 6.27 G/DL
URIC ACID [3]: 0.93 mg/dL
ABSOLUTE BASOPHIL [4]: 0 CELLS/uL
ABSOLUTE EOSINOPHIL [4]: 0 CELLS/uL
ABSOLUTE LYMPHOCYTE [4]: 9886.33 CELLS/uL
ABSOLUTE MONOCYTE [4]: 68.67 CELLS/uL
ABSOLUTE SEGMENTED NEUTROPHIL [4]: 945 CELLS/uL
BASOPHIL [4]: 0%
EOSINOPHIL [4]: 0%
ERYTHROCYTE COUNT [4]: 5.61 x10E6/uL
HEMATOCRIT [4]: 35.17%
HEMOGLOBIN [4]: 14 G/DL
LEUKOCYTE COUNT [4]: 10.9 x10E3/uL
LYMPHOCYTE [4]: 90.33%
MEAN CORPUSCULAR HEMOGLOBIN [4]: 24.93 pg
MEAN CORPUSCULAR HEMOGLOBIN CONCENTRATION [4]: 39.83 G/DL
MEAN CORPUSCULAR VOLUME [4]: 62.63 fL
MONOCYTE [4]: 0.67%
NEUTROPHIL [4]: 9%
NUCLEATED RED BLOOD CELLS [4]: 0 /100WBC
PLATELET COUNT [4]: 1205.67 x10E3/uL
ALANINE AMINOTRANSFERASE [4]: 49 u/L
ALBUMIN [4]: 4.43 G/DL
ALKALINE PHOSPHATASE [4]: 427.33 u/L
ASPARTATE AMINOTRANSFERASE [4]: 75 u/L
BLOOD UREA NITROGEN [4]: 18 mg/dL
CARBON DIOXIDE [4]: 29.67 mmol/L
CHLORIDE [4]: 103 MEQ/L
CHOLESTEROL [4]: 72.33 mg/dL
CREATINE PHOSPHOKINASE [4]: 164.33 u/L
CREATININE [4]: 0.18 mg/dL
GLUCOSE [4]: 146.67 mg/dL
LACTATE DEHYDROGENASE [4]: 113.67 u/L
LIPASE [4]: 8.33 u/L
PHOSPHORUS [4]: 13.67 mg/dL
POTASSIUM [4]: 7.15 MEQ/L
SODIUM [4]: 146.83 MEQ/L
TOTAL BILIRUBIN [4]: 0.23 mg/dL
TOTAL PROTEIN [4]: 6.6 G/DL
URIC ACID [4]: 1.7 mg/dL
